Measured values published in PubChem BioAssay (NCI).
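Briefly, cells in 96-well plates were exposed to five compound concentrations for 48 h, and endpoints were estimated by linear interpolation. Abbreviation: GI50, concentration required for 50% inhibition of growth. TGI marks complete inhibition of growth.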

What was measured:
Assay in all cases: NCI anticancer screen, dose series, 48 h
NCI-H460 lung = test system: NCI-H460 lung
HOP-62 NSCLC = test system: HOP-62 NSCLC
OVCAR-8 ovarian = test system: OVCAR-8 ovarian

C=C(C)[C@@H]1CC[C@]2(C(=O)OCCOCCOCC[P+](c3ccccc3)(c3ccccc3)c3ccccc3)CC[C@]3(C)[C@H](CC[C@@H]4[C@@]5(C)CC[C@H](C)C(C)(C)[C@@H]5CC[C@]43C)[C@@H]12
GI50 (NCI-H460 lung): 38.3 nM
TGI (NCI-H460 lung): > 100000 nM
GI50 (HOP-62 NSCLC): 38.4 nM
TGI (HOP-62 NSCLC): 614 nM
GI50 (OVCAR-8 ovarian): 43.1 nM
TGI (OVCAR-8 ovarian): > 100000 nM
